Source: US12409192B2, “Traditional Chinese medicine composition and use thereof” (JIANGSU KANION PHARMACEUTICAL CO., LTD, priority 2021, dated 2025)

Test system: fever induced by dry yeast in rats
Test: Dry yeast-induced fever in rats
Format: in vivo
Conditions: composition 3.34 g crude drugs/kg, aspirin 0.20 g/kg, X ± SD, n = 10
Experimental: Male SD rats, weighing 180-220 g were fed adaptively for 1 week, with the environmental temperature maintained at 20-25° C. The rectal temperature of the rats was measured once daily at 10:00 am for two consecutive days to acclimate them to this procedure. The average of the two temperature measurements was taken as the baseline temperature. Rats with a temperature range of 37.0-38.6° C. and a fluctuation <0.5° C. were selected for the experiment. Each rat was subcutaneously injected with 10 ml/kg of a 20% suspension of dry yeast to induce fever. (Preparation method: 120 g of dry yeast was weighed and placed in a mortar, gradually adding distilled water to grind into a uniform suspension, and then adjusted to a volume of 600 mL, prepare this solution fresh.) Six hours after injecting the yeast suspension, the body temperature of the rats was measured. One hundred and seventy rats with a temperature increase ranging from 1.0 to 2.2 degrees Celsius were selected and randomly divided into 17 groups based on their temperatures. […] Each group was orally gavaged with the corresponding solvent or drug, and rectal temperature was measured at 1 h, 2 h, 3 h, 4 h, and 5 h after administration to calculate the temperature difference from baseline.
Male SD rats, weighing 180-220 g were fed adaptively for 1 week, with the environmental temperature maintained at 20-25° C. The rectal temperature of the rats was measured once daily at 10:00 am for two consecutive days to acclimate them to this procedure. The average of the two temperature measurements was taken as the baseline temperature. Rats with a temperature range of 37.0-38.6° C. and a fluctuation <0.5° C. were selected for the experiment. Each rat was subcutaneously injected with 10 ml/kg of a 20% suspension of dry yeast to induce fever. (Preparation method: 120 g of dry yeast was weighed and placed in a mortar, gradually adding distilled water to grind into a uniform suspension, and then adjusted to a volume of 600 mL, prepare this solution fresh.) Six hours after injecting the yeast suspension, the body temperature of the rats was measured. Ninety rats with a temperature increase ranging from 1.0 to 2.2 degrees Celsius were selected and randomly divided into 9 groups based on their temperatures. These groups were as follows: (1) Model group: administered distilled water, (2) 7 batches of traditional Chinese medicine groups P-V: dosage of 3.34 g crude drugs/kg, (3) Positive control group: administered aspirin suspension, dosage of 0.20 g/kg. Each group was orally gavaged with the corresponding solvent or drug, and rectal temperature was measured at 1 h, 2 h, 3 h, 4 h, and 5 h after administration to calculate the temperature difference from baseline.

## CC(=O)Oc1ccccc1C(=O)O [Aspirin, aspirin]
1 h after oral gavage
  Temperature rise degrees after administration of medication (ΔT), 1 h: 0.40 ± 0.24 degrees
2 h after oral gavage
  Temperature rise degrees after administration of medication (ΔT), 2 h: 0.34 ± 0.37 degrees
3 h after oral gavage
  Temperature rise degrees after administration of medication (ΔT), 3 h: 0.27 ± 0.28 degrees
4 h after oral gavage
  Temperature rise degrees after administration of medication (ΔT), 4 h: 0.22 ± 0.23 degrees
5 h after oral gavage
  Temperature rise degrees after administration of medication (ΔT), 5 h: 0.22 ± 0.24 degrees
Verification study, 1 h after oral gavage
  Degrees of temperature rise after administration of medication (ΔT), 1 h: 0.42 ± 0.34 Degrees
Verification study, 2 h after oral gavage
  Degrees of temperature rise after administration of medication (ΔT), 2 h: 0.42 ± 0.31 Degrees
Verification study, 3 h after oral gavage
  Degrees of temperature rise after administration of medication (ΔT), 3 h: 0.34 ± 0.31 Degrees
Verification study, 4 h after oral gavage
  Degrees of temperature rise after administration of medication (ΔT), 4 h: 0.23 ± 0.30 Degrees
Verification study, 5 h after oral gavage
  Degrees of temperature rise after administration of medication (ΔT), 5 h: 0.17 ± 0.13 Degrees
